Patent publication US20130209543A1, “ENHANCED TREATMENT REGIMENS USING MTOR INHIBITORS” (Intellikine LLC, priority 2011, published 2013)
Where two headings read alike, the source gives them in different places.

Columns and labels:
[1] = tested on: PC3; test: PC3 proliferation; format: cell-based; details: Homo sapiens, PC-3; for EC50: Table 1; for IC50: Table 2
[2] = biological target: T1, mTOR (Homo sapiens, UniProt P42345); test: mTOR kinase inhibition assay; format: biochemical
T1 construct: purchased Invitrogen
Procedure: The compounds described herein and any other mTorC1/mTorC2 inhibitors known in the art can be tested against recombinant mTOR (Invitrogen) in an assay containing 50 mM HEPES, pH 7.5, 1 mM EGTA, 10 mM MgCl2, 2.5 mM, 0.01% Tween, 10 μM ATP (2.5 μCi of μ-32P-ATP), and 3 mg/mL BSA. Rat recombinant PHAS-1/4EBP1 (Calbiochem; 2 mg/mL) is used as a substrate. Reactions are terminated by spotting onto nitrocellulose, which is washed with 1M NaCl/1% phosphoric acid (approximately 6 times, 5-10 minutes each). Sheets are dried and the transferred radioactivity quantitated by phosphorimaging.
For instance, one can use Invitrogen's LanthaScreen™ Kinase assay to test the inhibitors of mTOR disclosed herein. This assay is a time resolved FRET platform that measures the phosphorylation of GFP labeled 4EBP1 by mTOR kinase. The kinase reaction is performed in a white 384 well microtitre plate. The total reaction volume is 20 μl per well and the reaction buffer composition is 50 mM HEPES pH7.5, 0.01% Polysorbate 20, 1 mM EGTA, 10 mM MnCl2, and 2 mM DTT. In the first step, each well receives 2 ul of test compound in 20% dimethylsulphoxide resulting in a 2% DMSO final concentration. Next, 8ul of mTOR diluted in reaction buffer is added per well for a 60 ng/ml final concentration. To start the reaction, 10 ul of an ATP/GFP-4EBP1 mixture (diluted in reaction buffer) is added per well for a final concentration of 10 μM ATP and 0.5 μM GFP-4EBP1. The plate is sealed and incubated for 1 hour at room temperature. […] The plate is sealed, incubated for 1 hour at room temperature, and then read on a plate reader set up for LanthaScreen™ TR-FRET. Data is analyzed and IC50s are generated using GraphPad Prism 5.

[3] = biological target: PI3K δ (Homo sapiens, UniProt O00329); test: PI3K δ kinase assay; format: biochemical
[4] = biological target: PI3K β (Homo sapiens, UniProt P42338); test: PI3K β kinase assay; format: biochemical
[5] = biological target: PI3K γ (Homo sapiens, UniProt P48736); test: PI3K γ kinase assay; format: biochemical
[6] = biological target: PI3K α (Homo sapiens, UniProt P42336); test: PI3K α kinase assay; format: biochemical
Sequence of PI3K α (P42336 whole entry, species assumed): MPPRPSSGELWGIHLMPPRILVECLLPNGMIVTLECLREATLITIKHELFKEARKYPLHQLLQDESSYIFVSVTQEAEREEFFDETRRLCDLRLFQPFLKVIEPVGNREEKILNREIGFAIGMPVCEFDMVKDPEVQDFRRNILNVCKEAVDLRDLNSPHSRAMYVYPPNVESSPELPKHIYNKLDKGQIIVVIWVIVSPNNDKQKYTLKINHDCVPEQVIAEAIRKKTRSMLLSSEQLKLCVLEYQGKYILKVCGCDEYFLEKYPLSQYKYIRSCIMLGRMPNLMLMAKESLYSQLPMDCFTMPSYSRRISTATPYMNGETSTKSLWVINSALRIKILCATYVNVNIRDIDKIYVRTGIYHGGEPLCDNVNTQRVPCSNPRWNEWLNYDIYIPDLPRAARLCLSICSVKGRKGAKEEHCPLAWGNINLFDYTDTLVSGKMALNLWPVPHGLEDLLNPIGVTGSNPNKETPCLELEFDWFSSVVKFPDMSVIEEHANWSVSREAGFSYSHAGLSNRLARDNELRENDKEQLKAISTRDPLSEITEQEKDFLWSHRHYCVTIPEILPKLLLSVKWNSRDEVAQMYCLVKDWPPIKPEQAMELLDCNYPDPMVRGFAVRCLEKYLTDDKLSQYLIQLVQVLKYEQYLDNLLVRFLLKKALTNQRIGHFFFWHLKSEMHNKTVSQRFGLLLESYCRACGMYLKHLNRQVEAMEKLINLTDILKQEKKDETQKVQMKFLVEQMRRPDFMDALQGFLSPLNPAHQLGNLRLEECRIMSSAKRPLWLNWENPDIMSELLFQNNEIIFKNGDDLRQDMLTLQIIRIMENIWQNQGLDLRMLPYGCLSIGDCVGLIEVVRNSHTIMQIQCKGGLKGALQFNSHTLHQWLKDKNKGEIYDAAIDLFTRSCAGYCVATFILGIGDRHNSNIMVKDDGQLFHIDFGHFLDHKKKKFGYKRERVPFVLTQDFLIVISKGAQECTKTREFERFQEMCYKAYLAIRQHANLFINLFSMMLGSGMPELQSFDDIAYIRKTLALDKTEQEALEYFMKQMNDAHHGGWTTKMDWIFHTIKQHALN
Sequence of PI3K α (P27986 whole entry partner, species assumed): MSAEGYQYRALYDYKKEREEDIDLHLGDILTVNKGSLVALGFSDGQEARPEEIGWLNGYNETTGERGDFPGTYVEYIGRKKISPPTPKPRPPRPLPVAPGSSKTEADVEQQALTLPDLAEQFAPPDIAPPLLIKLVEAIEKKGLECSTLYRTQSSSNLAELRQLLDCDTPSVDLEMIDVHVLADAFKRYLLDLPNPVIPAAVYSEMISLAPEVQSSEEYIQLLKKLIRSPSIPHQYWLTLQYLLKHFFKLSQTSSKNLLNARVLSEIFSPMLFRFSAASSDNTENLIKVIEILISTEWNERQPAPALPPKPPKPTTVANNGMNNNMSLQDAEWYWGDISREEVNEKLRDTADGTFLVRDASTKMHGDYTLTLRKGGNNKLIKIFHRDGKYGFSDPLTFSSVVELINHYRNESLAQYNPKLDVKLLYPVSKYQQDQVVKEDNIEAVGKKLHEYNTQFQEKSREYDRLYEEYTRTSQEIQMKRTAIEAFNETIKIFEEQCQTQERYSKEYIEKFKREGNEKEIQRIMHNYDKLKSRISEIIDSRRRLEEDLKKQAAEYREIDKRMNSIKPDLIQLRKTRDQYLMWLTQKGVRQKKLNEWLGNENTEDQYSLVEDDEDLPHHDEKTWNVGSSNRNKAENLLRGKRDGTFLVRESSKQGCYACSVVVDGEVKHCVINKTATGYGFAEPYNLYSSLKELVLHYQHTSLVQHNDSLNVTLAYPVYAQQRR

Sequence of PI3K β (P42338 whole entry, species assumed): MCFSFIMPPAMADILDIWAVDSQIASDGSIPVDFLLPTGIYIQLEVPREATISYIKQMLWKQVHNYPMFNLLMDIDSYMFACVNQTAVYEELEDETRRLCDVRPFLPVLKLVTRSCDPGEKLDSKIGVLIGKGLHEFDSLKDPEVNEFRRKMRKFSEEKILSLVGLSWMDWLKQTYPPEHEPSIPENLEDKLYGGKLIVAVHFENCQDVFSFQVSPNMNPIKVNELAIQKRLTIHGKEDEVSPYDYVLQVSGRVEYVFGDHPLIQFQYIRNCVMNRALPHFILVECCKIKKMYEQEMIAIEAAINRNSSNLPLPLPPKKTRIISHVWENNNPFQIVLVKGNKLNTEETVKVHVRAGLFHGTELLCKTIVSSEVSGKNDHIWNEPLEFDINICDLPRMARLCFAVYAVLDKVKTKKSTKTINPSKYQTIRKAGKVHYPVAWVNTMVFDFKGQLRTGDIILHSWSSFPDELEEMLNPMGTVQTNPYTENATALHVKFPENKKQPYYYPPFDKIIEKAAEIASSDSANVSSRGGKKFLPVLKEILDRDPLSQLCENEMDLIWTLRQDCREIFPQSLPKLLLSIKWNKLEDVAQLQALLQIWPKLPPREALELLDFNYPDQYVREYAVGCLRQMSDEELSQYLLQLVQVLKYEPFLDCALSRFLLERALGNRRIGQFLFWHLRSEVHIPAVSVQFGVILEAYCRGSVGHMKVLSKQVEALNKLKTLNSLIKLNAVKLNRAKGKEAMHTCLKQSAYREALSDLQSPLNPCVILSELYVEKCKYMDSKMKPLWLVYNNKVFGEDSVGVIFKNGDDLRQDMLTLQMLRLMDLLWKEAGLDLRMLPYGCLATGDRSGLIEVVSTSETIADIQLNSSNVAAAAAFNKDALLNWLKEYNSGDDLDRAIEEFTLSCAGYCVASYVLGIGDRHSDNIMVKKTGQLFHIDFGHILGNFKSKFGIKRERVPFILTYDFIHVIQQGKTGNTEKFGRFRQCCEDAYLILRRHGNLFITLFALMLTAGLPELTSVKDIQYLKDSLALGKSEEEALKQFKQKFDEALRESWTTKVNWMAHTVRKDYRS
Sequence of PI3K β (P27986 whole entry partner, species assumed): as the sequence (P27986 whole entry partner, species assumed) above
Sequence of PI3K γ (P48736 whole entry, species assumed): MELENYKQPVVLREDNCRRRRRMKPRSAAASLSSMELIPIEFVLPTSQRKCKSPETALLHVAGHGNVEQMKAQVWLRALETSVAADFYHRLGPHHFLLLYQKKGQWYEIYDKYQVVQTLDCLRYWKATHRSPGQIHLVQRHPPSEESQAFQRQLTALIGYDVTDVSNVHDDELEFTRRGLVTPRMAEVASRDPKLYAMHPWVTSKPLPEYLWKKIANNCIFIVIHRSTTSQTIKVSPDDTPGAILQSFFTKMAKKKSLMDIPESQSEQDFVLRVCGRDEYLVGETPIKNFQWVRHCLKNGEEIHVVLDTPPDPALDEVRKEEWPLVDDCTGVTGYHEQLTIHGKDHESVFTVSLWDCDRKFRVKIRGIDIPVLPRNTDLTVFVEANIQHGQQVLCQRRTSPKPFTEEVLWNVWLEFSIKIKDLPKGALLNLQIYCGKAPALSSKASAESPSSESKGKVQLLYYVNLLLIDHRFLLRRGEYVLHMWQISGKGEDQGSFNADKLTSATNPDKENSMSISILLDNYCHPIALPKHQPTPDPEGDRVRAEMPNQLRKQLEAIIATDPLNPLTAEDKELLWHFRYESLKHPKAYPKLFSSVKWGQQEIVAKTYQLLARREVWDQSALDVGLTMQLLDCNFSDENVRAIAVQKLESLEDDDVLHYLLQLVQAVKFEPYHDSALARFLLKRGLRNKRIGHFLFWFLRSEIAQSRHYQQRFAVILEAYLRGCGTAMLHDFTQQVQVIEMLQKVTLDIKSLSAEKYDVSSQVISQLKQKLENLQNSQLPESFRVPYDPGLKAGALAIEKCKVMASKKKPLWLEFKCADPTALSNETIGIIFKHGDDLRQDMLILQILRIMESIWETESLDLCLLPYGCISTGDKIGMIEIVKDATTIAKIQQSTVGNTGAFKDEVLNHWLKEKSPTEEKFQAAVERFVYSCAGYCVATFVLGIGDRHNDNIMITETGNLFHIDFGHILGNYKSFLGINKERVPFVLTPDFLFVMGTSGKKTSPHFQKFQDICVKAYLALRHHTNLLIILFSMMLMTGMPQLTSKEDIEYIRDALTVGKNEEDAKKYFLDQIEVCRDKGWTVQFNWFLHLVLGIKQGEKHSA
Sequence of PI3K δ (O00329 whole entry, species assumed): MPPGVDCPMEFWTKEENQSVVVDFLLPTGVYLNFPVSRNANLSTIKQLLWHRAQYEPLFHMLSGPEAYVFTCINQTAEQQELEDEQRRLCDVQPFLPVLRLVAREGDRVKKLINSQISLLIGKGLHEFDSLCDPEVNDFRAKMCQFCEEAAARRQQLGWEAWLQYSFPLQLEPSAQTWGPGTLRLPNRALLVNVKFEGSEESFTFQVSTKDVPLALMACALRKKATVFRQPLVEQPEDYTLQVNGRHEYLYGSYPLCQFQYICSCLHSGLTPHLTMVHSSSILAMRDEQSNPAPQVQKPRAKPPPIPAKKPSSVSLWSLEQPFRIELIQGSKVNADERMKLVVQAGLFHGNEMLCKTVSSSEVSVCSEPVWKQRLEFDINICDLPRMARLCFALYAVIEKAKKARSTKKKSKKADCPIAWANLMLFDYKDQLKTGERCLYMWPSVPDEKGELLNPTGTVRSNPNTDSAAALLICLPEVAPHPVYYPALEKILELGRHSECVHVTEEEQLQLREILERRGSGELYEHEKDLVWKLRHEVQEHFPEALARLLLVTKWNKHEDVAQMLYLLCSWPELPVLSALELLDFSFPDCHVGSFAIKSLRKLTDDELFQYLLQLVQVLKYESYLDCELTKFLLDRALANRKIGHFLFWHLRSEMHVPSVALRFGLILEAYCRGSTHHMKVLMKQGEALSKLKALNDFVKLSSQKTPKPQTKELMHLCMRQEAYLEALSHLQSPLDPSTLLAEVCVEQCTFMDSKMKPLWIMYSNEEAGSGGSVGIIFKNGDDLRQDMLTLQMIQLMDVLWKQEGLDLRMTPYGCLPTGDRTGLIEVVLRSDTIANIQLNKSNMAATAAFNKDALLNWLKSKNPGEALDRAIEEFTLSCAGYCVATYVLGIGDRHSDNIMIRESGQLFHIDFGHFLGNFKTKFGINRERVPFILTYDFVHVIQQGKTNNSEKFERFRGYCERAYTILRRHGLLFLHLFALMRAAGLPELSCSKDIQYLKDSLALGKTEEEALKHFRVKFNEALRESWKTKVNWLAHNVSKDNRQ
Sequence of PI3K δ (P27986 whole entry partner, species assumed): as the sequence (P27986 whole entry partner, species assumed) above

CC(C)n1nc(-c2ccc3c(N)noc3c2)c2c(N)ncnc21 [Compound 12]
EC50 [1]: > 10 µM
IC50 ([2]; Table 1, read-out: mTOR IC50): < 1000 nM

Nc1nc2cc(-c3nn(C4CCC(N5CCOCC5)CC4)c4ncnc(N)c34)ccc2o1 (stereo not shown) [Compound 6]
IC50 ([3]; Table 1): < 1000 nM
EC50 [1]: < 1 µM
IC50 ([4]; Table 1): > 10000 nM
IC50 ([2]; Table 1, read-out: mTOR IC50): < 100 nM

CC(C)n1nc(-c2cc3cc(O)cc(Cl)c3[nH]2)c2c(N)ncnc21 [Compound 15]
IC50 ([3]; Table 2): 25 to 50 nM
IC50 [1]: 25 to 50 nM
IC50 ([4]; Table 2): > 500 nM
IC50 ([5]; Table 2): 25 to 50 nM
IC50 ([2]; Table 2, read-out: mTORC IC50): < 5 nM
IC50 ([6]; Table 2): > 500 nM

CC(C)n1nc(-c2ccc3nc(N)oc3c2)c2c(N)ncnc21 [Compound 4]
IC50 ([3]; Table 1): < 1000 nM
EC50 [1]: < 10 µM
IC50 ([4]; Table 1): < 10000 nM
IC50 ([5]; Table 1): < 1000 nM
IC50 ([2]; Table 1, read-out: mTOR IC50): < 1000 nM
IC50 ([6]; Table 1): < 10000 nM

CC(C)n1nc(-c2cc3ccc(C(N)=O)cc3[nH]2)c2c(N)ncnc21 [Compound 25]
IC50 [1]: > 500 nM
IC50 ([2]; Table 2, read-out: mTORC IC50): 100 to 500 nM
IC50 ([6]; Table 2): > 500 nM

Nc1ncnc2c1c(-c1cc3cc(O)ccc3[nH]1)nn2C1CCCC1 [Compound 12]
IC50 [3]: > 500 nM
IC50 [1]: 25 to 50 nM
IC50 ([4]; Table 2): > 500 nM
IC50 ([2]; Table 2, read-out: mTORC IC50): 5 to 10 nM
IC50 ([6]; Table 2): > 500 nM

CN1CCN(C2CC(n3nc(-c4cc5cc(O)ccc5[nH]4)c4c(N)ncnc43)C2)CC1 (stereo not shown) [Compound 52]
IC50 ([3]; Table 2): 100 to 500 nM
IC50 ([4]; Table 2): > 500 nM
IC50 ([5]; Table 2): > 500 nM
IC50 ([2]; Table 2, read-out: mTORC IC50): 100 to 500 nM
IC50 ([6]; Table 2): > 500 nM

CC(C)N1CCC(n2nc(-c3cc4cccc(O)c4[nH]3)c3c(N)ncnc32)CC1 [Compound 64]
IC50 ([3]; Table 2): 100 to 500 nM
IC50 ([4]; Table 2): > 500 nM
IC50 ([5]; Table 2): 100 to 500 nM
IC50 ([2]; Table 2, read-out: mTORC IC50): 10 to 25 nM
IC50 ([6]; Table 2): > 500 nM

CC(C)n1nc(-c2ccc3onc(N)c3c2)c2c(N)ncnc21 [Compound 10]
EC50 [1]: > 10 µM
IC50 ([2]; Table 1, read-out: mTOR IC50): < 10000 nM

Nc1ncnc2c1c(-c1cc3cccc(Cl)c3[nH]1)nn2C1CCOCC1 [Compound 51]
IC50 ([3]; Table 2): 100 to 500 nM
IC50 ([4]; Table 2): > 500 nM
IC50 ([5]; Table 2): 100 to 500 nM
IC50 ([2]; Table 2, read-out: mTORC IC50): 25 to 50 nM
IC50 ([6]; Table 2): > 500 nM

CC(=O)N1CCC(n2nc(-c3cc4c(Cl)ccc(O)c4[nH]3)c3c(N)ncnc32)CC1 [Compound 69]
IC50 ([3]; Table 2): 100 to 500 nM
IC50 ([4]; Table 2): > 500 nM
IC50 ([5]; Table 2): > 500 nM
IC50 ([2]; Table 2, read-out: mTORC IC50): < 5 nM
IC50 ([6]; Table 2): > 500 nM

Nc1nc2cc(-c3cn(C4CCOCC4)c4ncnc(N)c34)ccc2o1 [Compound 9]
EC50 [1]: < 0.1 µM
IC50 ([4]; Table 1): > 10000 nM
IC50 ([2]; Table 1, read-out: mTOR IC50): < 100 nM
IC50 ([6]; Table 1): < 10000 nM

CC(=O)Nc1nc2cc(-c3nn(C(C)C)c4ncnc(N)c34)ccc2o1 [Compound 2]
IC50 ([3]; Table 1): < 1000 nM
EC50 [1]: < 1 µM
IC50 ([4]; Table 1): > 10000 nM
IC50 ([5]; Table 1): < 1000 nM
IC50 ([2]; Table 1, read-out: mTOR IC50): < 100 nM
IC50 ([6]; Table 1): < 10000 nM

Nc1nc2cc(-c3nn(C4CCOCC4)c4ncnc(N)c34)ccc2o1 [Compound 5]
IC50 ([3]; Table 1): < 1000 nM
EC50 [1]: < 0.1 µM
IC50 ([4]; Table 1): < 10000 nM
IC50 ([5]; Table 1): < 100 nM
IC50 ([2]; Table 1, read-out: mTOR IC50): < 100 nM
IC50 ([6]; Table 1): < 1000 nM

CC(CO)n1nc(-c2ccc3oc(N)nc3c2)c2c(N)ncnc21 (stereo not shown) [Compound 23]
IC50 ([3]; Table 1): < 10000 nM
IC50 ([4]; Table 1): > 10000 nM
IC50 ([5]; Table 1): < 10000 nM
IC50 ([2]; Table 1, read-out: mTOR IC50): < 100 nM
IC50 ([6]; Table 1): < 10000 nM

CC(C)n1nc(-c2cc3cccc(O)c3[nH]2)c2c(N)ncnc21 [Compound 11]
IC50 ([3]; Table 2): 100 to 500 nM
IC50 [1]: 25 to 50 nM
IC50 ([4]; Table 2): > 500 nM
IC50 ([5]; Table 2): 100 to 500 nM
IC50 ([2]; Table 2, read-out: mTORC IC50): < 5 nM
IC50 ([6]; Table 2): > 500 nM

Nc1ncnc2c1c(-c1cc3cccc(O)c3[nH]1)nn2C1CCN(C(=O)C2CC2)CC1 [Compound 41]
IC50 ([3]; Table 2): > 500 nM
IC50 ([4]; Table 2): > 500 nM
IC50 ([5]; Table 2): 25 to 50 nM
IC50 ([2]; Table 2, read-out: mTORC IC50): 5 to 10 nM
IC50 ([6]; Table 2): > 500 nM

CC(=O)Nc1noc2cc(-c3nn(C(C)C)c4ncnc(N)c34)ccc12 [Compound 11]
EC50 [1]: > 10 µM
IC50 ([2]; Table 1, read-out: mTOR IC50): < 1000 nM

Nc1ncnc2c1c(-c1cc3cc(O)ccc3[nH]1)nn2C1CCCCC1 [Compound 26]
IC50 ([3]; Table 2): 50 to 100 nM
IC50 [1]: 100 to 500 nM
IC50 ([4]; Table 2): > 500 nM
IC50 ([5]; Table 2): 100 to 500 nM
IC50 ([2]; Table 2, read-out: mTORC IC50): 5 to 10 nM
IC50 ([6]; Table 2): > 500 nM

COc1cccc2cc(-c3nn(C4CCOCC4)c4ncnc(N)c34)[nH]c12 [Compound 63]
IC50 ([3]; Table 2): 10 to 25 nM
IC50 ([4]; Table 2): > 500 nM
IC50 ([5]; Table 2): 10 to 25 nM
IC50 ([2]; Table 2, read-out: mTORC IC50): < 5 nM
IC50 ([6]; Table 2): 100 to 500 nM

Cc1nc(N)c2c(-c3ccc4oc(N)nc4c3)nn(C(C)C)c2n1 [Compound 21]
IC50 ([3]; Table 1): > 10000 nM
IC50 ([4]; Table 1): > 10000 nM
IC50 ([5]; Table 1): > 10000 nM
IC50 ([2]; Table 1, read-out: mTOR IC50): < 1000 nM
IC50 ([6]; Table 1): > 10000 nM

Nc1ncnc2c1c(-c1cc3cc(O)ccc3[nH]1)nn2C1CCC1 [Compound 27]
IC50 [1]: 100 to 500 nM
IC50 ([2]; Table 2, read-out: mTORC IC50): 10 to 25 nM

Nc1ncnc2c1c(-c1cc3cc(O)ccc3[nH]1)nn2C1CC(N2CCOCC2)C1 (stereo not shown) [Compound 49]
IC50 ([3]; Table 2): 100 to 500 nM
IC50 ([4]; Table 2): > 500 nM
IC50 ([5]; Table 2): 100 to 500 nM
IC50 ([2]; Table 2, read-out: mTORC IC50): 5 to 10 nM
IC50 ([6]; Table 2): > 500 nM

CC(C)n1nc(-c2cc3ccc(C#N)cc3[nH]2)c2c(N)ncnc21 [Compound 24]
IC50 [1]: > 500 nM
IC50 ([2]; Table 2, read-out: mTORC IC50): > 500 nM
IC50 ([6]; Table 2): > 500 nM

CC(C)n1nc(-c2cc3ccc(O)cc3[nH]2)c2c(N)ncnc21 [Compound 21]
IC50 ([3]; Table 2): 100 to 500 nM
IC50 ([4]; Table 2): > 500 nM
IC50 ([5]; Table 2): 100 to 500 nM
IC50 ([2]; Table 2, read-out: mTORC IC50): 25 to 50 nM
IC50 ([6]; Table 2): 100 to 500 nM

Nc1ncnc2c1c(-c1cc3c(Cl)cccc3[nH]1)nn2C1CCOCC1 [Compound 48]
IC50 ([3]; Table 2): > 500 nM
IC50 ([4]; Table 2): > 500 nM
IC50 ([5]; Table 2): > 500 nM
IC50 ([2]; Table 2, read-out: mTORC IC50): 25 to 50 nM
IC50 ([6]; Table 2): > 500 nM

CC(C)n1nc(-c2cc3cc(O)cc(F)c3[nH]2)c2c(N)ncnc21 [Compound 16]
IC50 ([3]; Table 2): 50 to 100 nM
IC50 [1]: 100 to 500 nM
IC50 ([4]; Table 2): > 500 nM
IC50 ([5]; Table 2): 100 to 500 nM
IC50 ([2]; Table 2, read-out: mTORC IC50): < 5 nM
IC50 ([6]; Table 2): > 500 nM

Nc1ncnc2c1c(-c1cc3cccc(O)c3[nH]1)nn2C1CCCC1 [Compound 36]
IC50 ([3]; Table 2): 100 to 500 nM
IC50 [1]: 50 to 100 nM
IC50 ([5]; Table 2): 50 to 100 nM
IC50 ([2]; Table 2, read-out: mTORC IC50): 5 to 10 nM
IC50 ([6]; Table 2): > 500 nM

CC(=O)N1CCC(n2nc(-c3ccc4oc(N)nc4c3)c3c(N)ncnc32)CC1 [Compound 7]
IC50 ([3]; Table 1): < 1000 nM
EC50 [1]: < 10 µM
IC50 ([4]; Table 1): < 10000 nM
IC50 ([5]; Table 1): < 10000 nM
IC50 ([2]; Table 1, read-out: mTOR IC50): < 100 nM
IC50 ([6]; Table 1): < 1000 nM

CC(C)N1CCC(n2nc(-c3cc4c(Cl)ccc(O)c4[nH]3)c3c(N)ncnc32)CC1 [Compound 71]
IC50 ([3]; Table 2): > 500 nM
IC50 ([4]; Table 2): > 500 nM
IC50 ([5]; Table 2): > 500 nM
IC50 ([2]; Table 2, read-out: mTORC IC50): 50 to 100 nM
IC50 ([6]; Table 2): > 500 nM

CC(=O)N1CCC(n2nc(-c3cc4cc(O)cc(Cl)c4[nH]3)c3c(N)ncnc32)CC1 [Compound 70]
IC50 ([3]; Table 2): 10 to 25 nM
IC50 ([4]; Table 2): > 500 nM
IC50 ([5]; Table 2): 50 to 100 nM
IC50 ([2]; Table 2, read-out: mTORC IC50): < 5 nM
IC50 ([6]; Table 2): 100 to 500 nM

CC(C)n1cc(-c2ccc3oc(N)nc3c2)c2c(N)ncnc21 [Compound 8]
IC50 ([3]; Table 1): < 1000 nM
EC50 [1]: < 0.1 µM
IC50 ([4]; Table 1): > 10000 nM
IC50 ([5]; Table 1): < 1000 nM
IC50 ([2]; Table 1, read-out: mTOR IC50): < 100 nM
IC50 ([6]; Table 1): < 1000 nM
